Molecules are shown by their SMILES. Structures can show the parent of a compound that is named as a salt.

One data set is described as follows: Hygroscopicity test. Format: physicochemical. The settings on record: stored three weeks, room temperature, relative humidity 97%. The text has this: The compound of the present invention and the comparative compound were stored for three weeks under the conditions of room temperature and the relative humidity of 97%. […] On the other hand, the comparative compound had deliquesced.

For a further data set, the system named is S. aureus Smith. The data set is described as follows: Susceptibility test (MIC, microtiter broth dilution). Format: cell-based. The conditions noted are these: Staphylococcus aureus, CAMHB, overnight at 35° C. As for the experimental part:
(§1) The compound of the present invention was dissolved in dimethyl sulfoxide and measured for the antibacterial activity (MIC) by a microtiter broth dilution method recommended by Japanese Society of Chemotherapy.
(§2) Staphylococcus aureus (S. aureus Smith, FDA209P, F-3095), Enterococcus faecalis (E. faecalis D-2648) and Escherichia coli (E. coli NIHJ) were used as the bacteria.
(§3) The bacterial cells, grown overnight on a Mueller-Hinton agar: MHA plate at 35° C., were suspended in a sterilized physiological saline so as to be a 0.5 McFarland equivalent standard. The cell suspension was diluted ten-fold to prepare an inoculum. Approximately 0.005 mL of the inoculum was inoculated into a cation-adjusted Mueller-Hinton broth (CAMHB), 100 μL/well containing the test substance and allowed to grow overnight at 35° C. The lowest concentration of the test substance at which no bacterial growth was observed by the naked eye was determined as MIC.
(In broth dilution the organism is exposed to a series of concentrations in liquid medium.)

Another data set relates to E. faecalis D-2648. The data set is described as above. The conditions noted are these: Enterococcus faecalis, D2648. It is filed as cell-based. The procedure: as §1, §2, §3
The subject of the next data set is E. coli NIHJ. The data set is described as above. It is filed as cell-based. The settings on record: Escherichia coli, CAMHB, overnight at 35° C. The procedure: as §1, §2, §3
In a further data set the test system is S. aureus F-3095. The description is as above. The conditions noted are these: Staphylococcus aureus, F3095. It is filed as cell-based. As for the experimental part:
as §1, §2, §3

Another data set deals with S. aureus FDA209P. Described as above. Format: cell-based. The settings on record: Staphylococcus aureus, CAMHB, overnight at 35° C. The procedure:
as §1, §2, §3

A short description of data set [1]: Solubility in phosphate buffer solution. It is filed as physicochemical. The settings on record: aqueous buffer, thermodynamic from solid; 0.2 mol/L phosphate buffer solution (pH 6.5), 25° C., shaken 48 hours.

In the case of `O=c1ccc2ncc(F)cc2n1CCN1CCC(NCc2cc3c(cn2)OCCO3)CC1` [Comparative Example 1, 1-(2-(4-((2,3-dihydro(1,4)dioxino(2,3-c)pyridin-7-ylmethyl)amino)piperidin-1-yl)ethyl)-7-fluoro-1,5-naphthyridin-2(1H)-one trihydrochloride, reference compound], the “Appearance after storage (hygroscopicity / deliquescence)” value in the data set “Hygroscopicity test” (trihydrochloride) is given as “deliquesced”.
A word on the MIC: it is the lowest concentration that inhibits growth of the organism. Higher therefore signals weaker potency. The term solubility denotes the dissolved amount per volume that the medium holds. A low value points to a poorly soluble substance. For the molecule `O=c1ccc2ncc(F)cc2n1CCN1CCC(NCc2cc3c(cn2)OCCO3)CC1` [Example 16, 1-(2-(4-((2,3-dihydro(1,4)dioxino(2,3-c)pyridin-7-ylmethyl)amino)piperidin-1-yl)ethyl)-7-fluoro-1,5-naphthyridin-2(1H)-one monohydrate], the MIC against S. aureus Smith is 0.0625 µg/mL; in the data set with E. faecalis D-2648 it was 0.25 µg/mL; against E. coli NIHJ, 0.125 µg/mL; against S. aureus F-3095, 0.0313 µg/mL; in the data set on S. aureus FDA209P, 0.0313 µg/mL. This molecule displayed a solubility at 48 h in data set [1] of 21.2 mg/mL. The “Appearance after storage (hygroscopicity / deliquescence)” value in “Hygroscopicity test” (monohydrate) is listed as “powder with no apparent change”.
